According to patent publication US20140255341A1, “Tumor Selective Chemokine Modulation” (priority 2011, published 2014):

Key:
[1] = test system: liver-metastatic colorectal cancer tissues versus marginal liver tissues; assay: Chemokine production in matched liver-metastatic tumor and marginal liver tissues (ELISA, Taqman); format: cell-based, human; details: tumor tissues, NF-κB inhibitor at 20 μM
Experimental: (§1) FIG. 9. Selective induction of CXCL10 and CCL5 in liver metastases compared to normal liver tissues: role of NF-κB. Matched samples of marginal liver tissues and liver-metastatic colorectal cancer tissues (3 biopsies in 1 ml in 24 well plate), were cultured for 24 hrs either untreated or treated with IFNα+poly-I:C+indomethacin and (A) analyzed for CCL5 and CXCL10 expression by Taqman. […] The supernatants were analyzed for CCL5 production by ELISA (see matched CXCL10 data in FIG. 4). (C) CAY10470 (20 μM) effects on liver glycogen phosphorylase mRNA expression in matched marginal liver tissue and liver-metastatic colorectal cancer.
Using matched tissue samples from 10 patients with metastatic colon cancer, we compared the responsiveness to the chemokine-modulating regimen between liver-metastatic tumor tissues and marginal tissues. […] This increased responsiveness of tumors compared to marginal tissues was not due to decreased survival of the marginal tissues, as determined by undisturbed expression levels of glycogen phosphorylase (FIG. 9C).

[2] = test system: marginal liver tissue and liver-metastatic colorectal cancer; assay: Glycogen phosphorylase mRNA expression as check of tissue survival; format: cell-based, human; details: at 20 μM
Experimental: as §1
CAY10470, used in these experiments (at 20 μM), was non-toxic, as shown by similar expression of glycogen phosphorylase mRNA in untreated and treated tissues (FIG. 9C).

macrophages = assay: Chemokine production by in vitro generated macrophages, ELISA of 48 hr. cultures; format: cell-based
Experimental: FIG. 5. […] Data from one representative experiment of three. […] The concentrations of chemokines in 48 hr. cultures were analyzed by ELISA. […] In order to test the possibility of correcting the chemokine environment in the tumors with low ratios of Teff- to Treg-attracting chemokines, we tested in pilot studies the feasibility of modulating their production using different combinations of IFNα, indomethacin (COX1/2 inhibitor) and poly-I:C in individual populations of tumor-relevant cells (known to infiltrate tumors), such as macrophages, or fibroblasts.

[3] = test system: colorectal cancer tumor tissues; assay: Ex vivo tumor/tissue explant culture, chemokine ELISA; format: cell-based, human; details: for CCL5 expression / production / CXCL10 expression / production: tumor tissues ex vivo, 48 hours, ELISA
Experimental: FIG. 6. […] (A) Fresh tumor samples from 11 patients with metastatic colorectal cancer were untreated or treated with IFNα and poly-I:C either individually or in combination for 48 hours. The release of CCL5 and CXCL10 into culture media was analyzed by ELISA. Numbers indicate the prevalence of tumors with each chemokine pattern (respective patterns A, B or C). (B) ELISA analysis of CCL5, CCL22 and CXCL10 in tumors untreated or treated with IFNα+pI:C, with or without indomethacin. (C) Heterogeneous response of different tumor lesions from the same patient (CCL5 and CXCL10 production) to the individual components of the chemokine-modulating cocktail. (D) Indomethacin and celecoxib enhance the IFNα/poly-I:C-induced Teff-attracting chemokine expression, but suppress Treg-attracting chemokine expression in colorectal cancer lesions. All cultures were for 48 hr. Combined data from the tumors of 3 different patients (n=3).
FIG. 7. […] (A) In-situ hybridization for respective chemokine mRNA (black grains) in tumor biopsies which were either left untreated or treated with the combination of indomethacin, IFNa and poly-I:C (IAP). (B) ELISA analysis of the chemokine contents in the supernatants of 48 hour-cultured tumor tissues (untreated or treated) from 10 different patients.
In order to test the feasibility of using these factors to manipulate the complex microenvironment of whole tumor tissues, involving all the above cell types and their interactions, we used an ex vivo tumor/tissue explant culture system previously developed to study migration of DCs. This system allowed us to avoid nonspecific activation of the chemokine-producing cells during tumor dissociation.

melanoma tissue = melanoma tissue ex vivo, increasing concentrations of melphalan
Experimental: FIG. 13. […] Tumor biopsies were cultured ex vivo in the presence of increasing concentrations of melphalan in the absence or presence of the triple combination (CAP) of the Celecoxib, IFNα and poly-I:C. Secretion levels of CC22 and CXCL10 were measured by ELISAs.

fibroblasts = assay: Chemokine production by fibroblasts, ELISA of 48 hr. cultures; format: cell-based
Description: FIG. 5. Interplay between COX inhibitor indomethacin, IFNα and poly-I:C in the induction of a desirable patterns of chemokine expression in isolated cell cultures. (A) Dose-dependent impact of IFNa and poly-I:C on the production of Teff-, and Treg-attracting chemokines by in vitro generated macrophages (see M&M) and in fibroblasts (obtained from Cascade Biological). Data from one representative experiment of three. (B) Effects of indomethacin on Teff-, and Treg-attracting chemokines produced by macrophages (N=3) by ELISA analysis. The concentrations of chemokines in 48 hr. cultures were analyzed by ELISA.
In order to test the possibility of correcting the chemokine environment in the tumors with low ratios of Teff- to Treg-attracting chemokines, we tested in pilot studies the feasibility of modulating their production using different combinations of IFNα, indomethacin (COX1/2 inhibitor) and poly-I:C in individual populations of tumor-relevant cells (known to infiltrate tumors), such as macrophages, or fibroblasts.

[4] = whole tumor tissues, COX inhibitor added to IFNα and poly-I:C

In the case of `Nc1ccc2ncnc(NCCc3ccc(Oc4ccccc4)cc3)c2c1` [CAY10470], the “CCL5 up-regulation by the chemokine-modulating regimen” value [1] is reported as “blocked”, the “CXCL10 induction by IFNα/poly-I:C/indomethacin” value [1] is reported as “completely abrogated” and the “toxicity (expression of glycogen phosphorylase mRNA in untreated and treated tissues)” value [2] is reported as “non-toxic”.
For `COc1ccc2c(c1)c(CC(=O)O)c(C)n2C(=O)c1ccc(Cl)cc1` [indomethacin], the “production of CCL22” value (macrophages) was “suppression of CCL22 production”, the “effects of IFNα and poly-I:C on Teff- and Treg-attracting chemokines (CCL5, CXCL10 induction, CCL22 suppression)” value (macrophages; indomethacin added) was “further potentiated” and the “IFNα/poly-I:C-induced Teff-attracting chemokine expression” value ([3]; colorectal cancer lesions, 48 hr, tumors of 3 patients) was “enhance”. For the same compound, the Treg-attracting chemokine expression ([3]; colorectal cancer lesions, with IFNα/poly-I:C, 48 hr, tumors of 3 patients) was “suppress”, the CCL22 levels [3, 4] was “reduced” and the “production of CCL5 induced by the combination IFNα and poly-I:C” value [3, 4] was “further enhanced”. The “production of CXCL10 induced by the combination IFNα and poly-I:C” value [3, 4] was “further enhanced”.
`N[C@@H](Cc1ccc(N(CCCl)CCCl)cc1)C(=O)O` [melphalan] was tested, and the “ratio between Treg-attracting and Teff-attracting chemokines (CCL22/CXCL10)” value (melanoma tissue) was “undesirable elevation”.
In the case of IFNα, the “production of CCL22” value (macrophages) is reported as “strong suppressive effect”, the “production of CCL22” value (fibroblasts) is reported as “strong suppressive effect” and the “CCL5 expression / production” value [3] is reported as “variable chemokine expression”. For the same compound, the “CXCL10 expression / production” value [3] was “variable chemokine expression”.
With “polyinosinic-polycytidylic acid [poly-I:C]” the “CCL5 expression / production” value [3] was “variable chemokine expression” and the “CXCL10 expression / production” value [3] was “variable chemokine expression”.
